Measured values taken from ChEMBL document CHEMBL1133308, “A novel inhibitor of human telomerase derived from 10H-indolo[3,2-b]quinoline” (Bioorg Med Chem Lett, 2000).

Key:
[1] = Compound was evaluated for cytotoxicity against human ovarian cancer cell SKOV-3; type: functional, cell-based; details: Cancer cell lines
[2] = Compound was evaluated for cytotoxicity against human ovarian cancer cell A2780; type: functional, cell-based; details: Cancer cell lines
[3] = Compound was evaluated for cytotoxicity against human ovarian cancer cell A2780R.; type: functional, cell-based; details: Cancer cell lines
[4] = Compound was evaluated for cytotoxicity against human ovarian cancer cell CHI; type: functional, cell-based; details: Cancer cell lines
[5] = Compound was evaluated for cytotoxicity against human ovarian cancer cell CHI R; type: functional, cell-based; details: Cancer cell lines
[6] = target: Telomerase reverse transcriptase (Homo sapiens, UniProt O14746); test: Inhibitory activity against human ovarian cancer cell (A2780 cells) Telomerase; type: cell-based
Telomerase reverse transcriptase, sequence (O14746 whole entry): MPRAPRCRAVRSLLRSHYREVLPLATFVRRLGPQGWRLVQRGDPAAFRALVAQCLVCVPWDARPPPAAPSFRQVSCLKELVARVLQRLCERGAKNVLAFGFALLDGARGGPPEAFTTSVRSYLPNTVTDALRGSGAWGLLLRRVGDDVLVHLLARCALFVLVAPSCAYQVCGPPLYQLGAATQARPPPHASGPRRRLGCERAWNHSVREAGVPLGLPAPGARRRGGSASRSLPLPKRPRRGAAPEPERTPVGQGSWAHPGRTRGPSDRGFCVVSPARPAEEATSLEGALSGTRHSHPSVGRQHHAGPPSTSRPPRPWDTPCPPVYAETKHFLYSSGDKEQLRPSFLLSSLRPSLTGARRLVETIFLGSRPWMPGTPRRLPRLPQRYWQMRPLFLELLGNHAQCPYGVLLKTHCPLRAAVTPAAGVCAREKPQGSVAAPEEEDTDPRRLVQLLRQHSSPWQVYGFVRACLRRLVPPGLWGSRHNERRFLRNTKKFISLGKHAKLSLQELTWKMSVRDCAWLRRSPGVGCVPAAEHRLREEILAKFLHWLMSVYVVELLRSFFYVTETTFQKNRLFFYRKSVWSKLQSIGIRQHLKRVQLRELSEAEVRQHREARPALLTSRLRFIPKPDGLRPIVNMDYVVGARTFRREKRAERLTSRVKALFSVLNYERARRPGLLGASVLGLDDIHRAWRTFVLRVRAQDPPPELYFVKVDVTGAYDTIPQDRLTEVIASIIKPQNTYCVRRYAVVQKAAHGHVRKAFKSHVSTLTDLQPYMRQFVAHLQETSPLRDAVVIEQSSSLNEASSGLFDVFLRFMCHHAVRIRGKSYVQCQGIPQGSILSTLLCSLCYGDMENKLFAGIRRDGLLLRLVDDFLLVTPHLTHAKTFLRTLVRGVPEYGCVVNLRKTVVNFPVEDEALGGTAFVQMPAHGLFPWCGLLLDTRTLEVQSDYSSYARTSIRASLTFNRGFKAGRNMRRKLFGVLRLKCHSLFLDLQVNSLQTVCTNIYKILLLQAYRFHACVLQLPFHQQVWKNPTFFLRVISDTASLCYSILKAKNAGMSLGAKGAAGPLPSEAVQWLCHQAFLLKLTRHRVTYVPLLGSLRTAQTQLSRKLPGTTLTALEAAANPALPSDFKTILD

What does the source list for `CN(C)CCc1ccc2nc3c4ccccc4n(CCN(C)C)c3cc2c1`?
IC50 [1]: 6.3 µM; IC50 [2]: 12.5 µM; IC50 [3]: 10.5 µM; IC50 [4]: 8.4 µM; IC50 [5]: 12.5 µM; IC50 [6]: 16 µM

For `CCN(CC)CCOc1ccc2c(c1)OC1C(=O)c3ccccc3C(=O)C21` (stereo not given), which IC50 [1] is on record?
The IC50 was 3.6 µM.

What about the IC50 [2] of the same compound?
The IC50 was 0.15 µM.

And the IC50 [4]?
The IC50 was 0.18 µM.

What about the IC50 [6] of the same compound?
Its IC50 is 7 µM.

Which results are given for `c1ccc2nc3c(cc2c1)[nH]c1ccccc13` [QUINDOLINE]?
IC50 [1]: 66 µM; IC50 [2]: 21.5 µM; IC50 [3]: 24.5 µM; IC50 [4]: 15.5 µM; IC50 [5]: 30 µM
